# Experimental data reported in patent US20100003271A1, “NITRIC OXIDE INCREASES SWITCHING OF T CELLS INTO T REGULATORY CELLS” (BOARD OF REGENTS OF THE UNIVERSITY OF TEXAS SYSTEM, priority 2006, published 2010).
# Key:
# Type in all cases: cell-based, human
# [1] = tested on: CD4+CD25- cells; assay: CFSE labeling and T cell co-culture assay (switching of CD4+CD25- cells); settings: in the presence of Treg cells
# Procedure: The CD4^+CD25^negative and CD4^+CD25^high T cell populations were isolated from T cells by cell sorting (FACSAria). Next, CD4^+CD25^negative cells were labeled with carboxyfluorescein diacetate succinimidyl ester (CFDA-SE; cat no C1157, Invitrogen) as described elsewhere (Hans et al., 2005). A stock solution of CFSE (5 mM) was diluted with PBS and added to the CD4^+CD25^negative cells at final concentration of 1 µM per 1×10^6 cells (20 minutes at 37° C.). After three washings, CFSE-labeled CD4^+CD25^negative cells (1×10^6) were co-cultured without or with CD4^+CD25^high cells at 10:1 ratio without or with titrated SNAP or DMSO and 6 hours later cells were activated with PHA (10 μg/ml). Following 5 days cells were harvested and stained with anti-human CD25-APC and anti-human CD127-PE Abs to measure transformation of CD^4+CD25^negative cells to CD25^+CD127^negative cells by FACS. The same cells were added to a primary syngeneic MLC at responder/regulator cell ratios (1/0, 1/0.25, 1/0.5, and 1/1). Cells were cultured for 5 days and the [^3H]-thymidine incorporation was measured as described above.
# [2] = tested on: PHA-activated PBLs; assay: Intracellular FoxP3 staining of CD4+CD25highCD127- population; settings: PHA-activated PBLs, 30, 50, 100 μM SNAP, 5 days, FIG. 3
# Procedure: Foxp3 intracellular staining was carried out using the FITC anti-human Foxp3 staining kit (BDBiosciences, San Diego, Calif.; Cat no 71-5776-40). In brief, PBLs from various groups were incubated with anti-human CD4-PerCP, anti-human CD25-APC and anti-human CD127-PE Abs for 20 minutes at room temperature for surface staining of CD4, CD25 and CD127 molecules, respectively. Cells were then washed, and fixed with Fix/Perm solution (30 minutes at 4° C.) and permeabilized with permeabilization buffer followed by blocking with rat serum (15 minutes at 4° C.). Cells were then stained with FITC-conjugated anti-FoxP3 or isotype control Ab (30 minutes at 4° C.). Cells were analyzed by flow cytometry for intracellular FoxP3 levels in CD4^+CD25^high/CD127^low versus CD4^+CD25^high/CD127^high cells on a FACSAria.
# [3] = tested on: PBLs challenged with HLA-mismatched alloantigen; assay: Number of Treg cells generated in alloactivated PBL culture; settings: 100 μM SNAP, 60×10^6 PBLs, 5-day culture, FIG. 5A
# Procedure: Alloactivation was set up by co-culturing responder PBLs (1-2×10^6 cells/ml) in a total volume of 35 ml of RPMI-10 with fully HLA mismatched gamma-irradiated (30 Gy) stimulators (1:1 ratio) in the presence of SNAP/DMSO. After 5 days, cells were washed and stained with anti-CD4-FITC and anti-CD25-PE Abs to isolate CD4+CD25^high and CD4+CD25^intermediate populations by FACS sorting. These cell populations were then added to fresh syngeneic PBLs (1×10^5) at different responder/regulator cell ratios (1/0, 1/0.005, 1/0.01, 1/0.05, 1/0.1, 1/0.5, and 1/1) with the same HLA-mismatched irradiated stimulators (1×10^5). Cells cultured in a 200 μl volume of RPMI-10 in 96-well round-bottomed plates for 5 days and pulsed with 1 μCi of [^3H]-thymidine for last 16 hours before harvesting. Cells were collected onto glass filters using an automated multi-sample harvester and the amount of [^3H]-thymidine incorporation was measured with a scintillation counter (Packard, Meridan, Conn.). Proliferative responses are expressed as the mean [^3H]-thymidine incorporation (counts per minute [cpm]) of triplicate wells±SD. In identical experiments, PBLs were activated with PHA (10 μg/ml) to examine the ability of NO-induced CD4+CD25^high population to suppress proliferation of alloantigen-specific MLC.
# [4] = tested on: PBLs; assay: Generation of CD4+CD25highCD127- Treg cells in PBL culture (FACS)
# Procedure: PBLs or purified T cells were either left untreated or treated with 10 μg/ml phytohemagglutanin (PHA, Sigma-Aldrich) at 1×10^6 cells/2 mL in 24-well plates in the absence or presence of various concentrations of SNAP-DMSO, DMSO or SNP and cultured in RPMI-10 for 5 days. Cells were then harvested and stained with anti-human CD4-PerCP, anti-human CD25-APC and anti-human CD127-PE Abs. Flow cytometry analysis measured CD4^+CD25^high CD127^low versus CD4^+CD25^highCD127^high populations using FACSAria with Diva program or FACSCalibur with CellQuest software (BD Pharmingen, San Diego, Calif.).
smiles,measurement,setting,value
"CC(=O)NC(C(=O)O)C(C)(C)SN=O (racemic) [SNAP, S-Nitroso-N-acetyl-DL-penicillamine]",switching of CD4+CD25- cells into CD4+CD25+CD127-FoxP3+ T regulatory (Tr1) cells,[1],elevated switching
same,generation of Foxp3-positive CD4+CD25+CD127- Treg cells,[2],induces generation of Foxp3-positive
same,number of Treg cells generated relative to culture without SNAP,[3],~3 fold
same,levels of CD4+CD25+CD127- Treg cells,"[4]; PHA-activated PBLs, 5-day culture, FIG. 2B",significantly increased
same,increase in generation of CD4+CD25+CD127-FoxP3+ Treg cells,[4]; low NO concentrations (10-100 μM nitrite),3 fold
same,number of CD4+CD25+CD127- Treg cells,[4]; non-activated PBLs,did not affect
